Results reported in ChEMBL document CHEMBL1201862, “PubChem BioAssay data set” (2004).
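Five compound concentrations were applied to cells in 96-well plates for 48 hours; endpoints were derived by simple linear interpolation of the resulting dose-response curve. GI50 marks 50% less growth.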 Active and inactive are the calls of the source. No stated cut-off is given here; in the data, active = GI50 up to about 1.1 µM and inactive = higher.

Assays:
Experiment in all cases: growth of human tumour cells (NCI), 48 h
RPMI-8226 = system: RPMI-8226
SNB-75 = system: SNB-75
OVCAR-4 = system: OVCAR-4
HT-29 = system: HT-29
TK-10 = system: TK-10
OVCAR-3 = system: OVCAR-3
Malme-3M = system: Malme-3M
SK-OV-3 = system: SK-OV-3
NCI-H23 = system: NCI-H23
MOLT-4 = system: MOLT-4
DLD-1 = system: DLD-1
A498 = system: A498
HOP-18 = system: HOP-18
LXFL 529 = system: LXFL 529
SR = system: SR
IGROV-1 = system: IGROV-1
UO-31 = system: UO-31
HOP-62 = system: HOP-62
HCT-116 = system: HCT-116
RXF 631 = system: RXF 631
COLO 205 = system: COLO 205
K562 = system: K562
OVCAR-5 = system: OVCAR-5
HOP-92 = system: HOP-92
M14 = system: M14
CCRF-CEM = system: CCRF-CEM
ACHN = system: ACHN
SK-MEL-28 = system: SK-MEL-28
HL-60 = system: HL-60
HCT-15 = system: HCT-15
U-251 = system: U-251
LOX IMVI = system: LOX IMVI
UACC-257 = system: UACC-257
RXF 393 = system: RXF 393
DMS-273 = system: DMS-273
NCI-H522 = system: NCI-H522
CAKI-1 = system: CAKI-1
SF-539 = system: SF-539
UACC-62 = system: UACC-62
HCC 2998 = system: HCC 2998
EKVX = system: EKVX
KM-20L2 = system: KM-20L2
SK-MEL-2 = system: SK-MEL-2
786-0 = system: 786-0
NCI-H226 = system: NCI-H226
A549 = system: A549
SK-MEL-5 = system: SK-MEL-5
SF-295 = system: SF-295
SN12C = system: SN12C
SF-268 = system: SF-268
SW-620 = system: SW-620
OVCAR-8 = system: OVCAR-8
SNB-19 = system: SNB-19
M19-MEL = system: M19-MEL
NCI-H460 = system: NCI-H460
XF498 = system: XF498
SNB-78 = system: SNB-78
KM12 = system: KM12

Cc1cccc(C)c1NC(=O)C1C(=O)N(c2c(C)cccc2C)C(=O)/C1=N\N (stereo not given)
GI50 (RPMI-8226): > 100 µM (inactive)
GI50 (SNB-75): > 100 µM (inactive)
GI50 (OVCAR-4): > 100 µM (inactive)
GI50 (HT-29): > 100 µM (inactive)
GI50 (TK-10): > 100 µM (inactive)
GI50 (OVCAR-3): > 100 µM (inactive)
GI50 (Malme-3M): > 100 µM (inactive)
GI50 (SK-OV-3): > 100 µM (inactive)
GI50 (NCI-H23): > 100 µM (inactive)
GI50 (MOLT-4): > 100 µM (inactive)
GI50 (DLD-1): > 100 µM (inactive)
GI50 (A498): > 100 µM (inactive)
GI50 (HOP-18): > 100 µM (inactive)
GI50 (LXFL 529): > 100 µM (inactive)
GI50 (SR): > 100 µM (inactive)
GI50 (IGROV-1): > 100 µM (inactive)
GI50 (UO-31): > 100 µM (inactive)
GI50 (HOP-62): > 100 µM (inactive)
GI50 (HCT-116): > 100 µM (inactive)
GI50 (RXF 631): > 100 µM (inactive)
GI50 (COLO 205): > 100 µM (inactive)
GI50 (K562): > 100 µM (inactive)
GI50 (OVCAR-5): > 100 µM (inactive)
GI50 (HOP-92): > 100 µM (inactive)
GI50 (M14): > 100 µM (inactive)
GI50 (CCRF-CEM): > 100 µM (inactive)
GI50 (ACHN): > 100 µM (inactive)
GI50 (SK-MEL-28): > 100 µM (inactive)
GI50 (HL-60): 1.68 µM (inactive)
GI50 (HCT-15): > 100 µM
GI50 (U-251): > 100 µM (inactive)
GI50 (LOX IMVI): > 100 µM (inactive)
GI50 (UACC-257): > 100 µM (inactive)
GI50 (RXF 393): > 100 µM (inactive)
GI50 (DMS-273): > 100 µM (inactive)
GI50 (NCI-H522): > 100 µM (inactive)
GI50 (CAKI-1): > 100 µM (inactive)
GI50 (SF-539): > 100 µM (inactive)
GI50 (UACC-62): > 100 µM (inactive)
GI50 (HCC 2998): > 100 µM (inactive)
GI50 (EKVX): > 100 µM (inactive)
GI50 (KM-20L2): > 100 µM (inactive)
GI50 (SK-MEL-2): > 100 µM (inactive)
GI50 (786-0): > 100 µM (inactive)
GI50 (NCI-H226): > 100 µM (inactive)
GI50 (A549): > 100 µM (inactive)
GI50 (SK-MEL-5): > 100 µM (inactive)
GI50 (SF-295): > 100 µM (inactive)
GI50 (SN12C): > 100 µM (inactive)
GI50 (SF-268): > 100 µM (inactive)
GI50 (SW-620): > 100 µM (inactive)
GI50 (OVCAR-8): > 100 µM (inactive)
GI50 (SNB-19): > 100 µM (inactive)
GI50 (M19-MEL): > 100 µM (inactive)

CN(C)/C=C/C(=CC=[N+](C)C)/C=C/N(C)C.[O-][Cl+3]([O-])([O-])[O-]
GI50 (RPMI-8226): > 100 µM (inactive)
GI50 (OVCAR-4): > 100 µM (inactive)
GI50 (HT-29): > 100 µM (inactive)
GI50 (TK-10): > 100 µM (inactive)
GI50 (OVCAR-3): > 100 µM (inactive)
GI50 (Malme-3M): > 100 µM (inactive)
GI50 (SK-OV-3): 16.7 µM (inactive)
GI50 (NCI-H23): > 100 µM (inactive)
GI50 (MOLT-4): 90.4 µM (inactive)
GI50 (NCI-H460): > 100 µM (inactive)
GI50 (DLD-1): > 100 µM (inactive)
GI50 (A498): 31.3 µM (inactive)
GI50 (LXFL 529): > 100 µM (inactive)
GI50 (SR): > 100 µM (inactive)
GI50 (IGROV-1): > 100 µM (inactive)
GI50 (UO-31): > 100 µM (inactive)
GI50 (HOP-62): > 100 µM (inactive)
GI50 (HCT-116): > 100 µM (inactive)
GI50 (RXF 631): > 100 µM (inactive)
GI50 (K562): > 100 µM (inactive)
GI50 (OVCAR-5): > 100 µM (inactive)
GI50 (HOP-92): > 100 µM (inactive)
GI50 (M14): > 100 µM (inactive)
GI50 (CCRF-CEM): 60.3 µM (inactive)
GI50 (ACHN): > 100 µM (inactive)
GI50 (SK-MEL-28): > 100 µM (inactive)
GI50 (HL-60): > 100 µM (inactive)
GI50 (U-251): > 100 µM (inactive)
GI50 (LOX IMVI): 57 µM (inactive)
GI50 (UACC-257): > 100 µM (inactive)
GI50 (XF498): > 100 µM (inactive)
GI50 (RXF 393): > 100 µM (inactive)
GI50 (DMS-273): > 100 µM (inactive)
GI50 (NCI-H522): > 100 µM (inactive)
GI50 (CAKI-1): 70.3 µM (inactive)
GI50 (SF-539): > 100 µM (inactive)
GI50 (UACC-62): > 100 µM (inactive)
GI50 (HCC 2998): > 100 µM (inactive)
GI50 (SNB-78): > 100 µM (inactive)
GI50 (SK-MEL-2): > 100 µM (inactive)
GI50 (786-0): > 100 µM (inactive)
GI50 (NCI-H226): > 100 µM (inactive)
GI50 (A549): > 100 µM (inactive)
GI50 (SK-MEL-5): > 100 µM (inactive)
GI50 (SF-295): > 100 µM (inactive)
GI50 (SN12C): > 100 µM (inactive)
GI50 (SF-268): > 100 µM (inactive)
GI50 (KM12): > 100 µM (inactive)
GI50 (SW-620): > 100 µM (inactive)
GI50 (OVCAR-8): > 100 µM (inactive)
GI50 (SNB-19): > 100 µM (inactive)
